Laboratory results from paper PMC8222713, “Variation of Two S3b Residues in KV4.1–4.3 Channels Underlies Their Different Modulations by Spider Toxin κ-LhTx-1” (Frontiers in Pharmacology, 2021).
Where a SMILES comes first, the peptide text is derived from it. Bridges are numbered along the chain shown (N, C = ends).

Tests used:
[1] = tested on: KV4.1/280VMTN chimeric channel; test: Whole-cell patch clamp, KV4.1/280VMTN chimera in CHO-K1 cells; format: cell-based, mouse; settings: mean ± SEM
Description: (§1) The cDNA of hKV1.1, hKV1.3, rKV1.4, hKV1.5, rKV2.1, hKV3.1–3.4, mKV4.1, rKV4.2, and rKV4.3 were subcloned in the eukaryotic expression vector pCDNA3.1 or pCMV-blank. Channel mutants were made by a site-directed mutation method. Briefly, a pair of oppositely directed primers with 15 bp overlap at their 5′ ends and the designed mutation site were used to amplify the parental channel plasmid, then the PCR mix was treated with DpnI to remove the template. 10 μL digestion mix was directly used to transform 100 μL DH5α chemical competent cells. The correct mutation made by this procedure was finally confirmed by DNA sequencing. CHO-K1 cells (ATCC® CCL-61™) were grown in DMEM-F12 mixed medium (1:1) supplemented with 10% FBS and maintained in standard conditions (saturated humidity, 37°C, 5% CO2). Channel plasmid was co-transfected with pEGFP-N1 (encodes the green fluoresence protein) into CHO-K1 cells using lipofectamine 2000 following the manufacturer’s instructions. 4–6 h after transfection, cells were seeded onto poly-lysine (PLL) coated coverslips, and 24–36 h later, transfected cells were ready for patch-clamp analysis. It should be note that KV4.2 and its mutants were also co-expressed with hKChIP1 to promote their functional expressions.
(§2) Whole-cell patch clamp recording was performed in an electrophysiology platform equipped with MultiClamp 700B amplifier and Axon Digidata 1550 AD/DA convertor (Axon Instruments, Irvine, CA, United States). Data were acquired using the pClamp software (Axon Instruments, Irvine, CA, United States). All experiments were performed at room temperature. The bath solution contains (in mM): 140 NaCl, 5 KCl, 1 MgCl2, 2 CaCl2, 10 glucose, and 10 HEPES (pH = 7.3). The pipette solution contains (in mM): 140 KCl, 2.5 MgCl2, 11 EGTA, and 10 HEPES (pH = 7.3). Series resistance was kept below 10 MΩ and compensated to 80%. The concentration–response curves were fitted by a Hill logistic equation to estimate the potency (IC50) of the toxin. The whole cell conductance (G) at each depolarizing voltage (V) was determined using the equation: G = I/(V−Vrev), where I and Vrev represents the current amplitude and the reversal potential, respectively. In the present study, Vrev for K^+ current is determined to be −85.61 mV using the Nernst equation. G-V curve was obtained by plotting the normalized G as a function of V and fitted by the Boltzmann equation: y = 1/{1 + exp [(Va−V)/K]}, in which Va, V, and K represents half-maximum activation voltage, test voltage and slope factor, respectively. The steady-state fast inactivation of KV4 channels was measured using a classical two-pulses protocol: cell was held at −120 mV, and a train of conditional voltages (−120–40 mV, in 10 mV increment, 1,000 ms) were applied to induce channel inactivation, followed by a +60 mV test pulse (300 ms) to assess the proportion of non-inactivated channels; the sweep interval was set to 10 s. Currents at the test pulse (I) were normalized to the maximum value (Imax) and plotted as a function of the conditional voltage (V), the curve was fitted by the Boltzmann equation: I/Imax = A + (1−A)/{1 + exp [(V−Vh)/K]}, where Vh is the half-maximum inactivation voltage, A represents the minimum channel availability, and K is the slope factor. Gating currents of KV4.1–4.3 channels were measured as previously reported ([Tilley et al., 2019]). Briefly, the ionic pore currents were abolished by replacing K^+ with NMDG^+ in the pipette solution, and 10 µM Cs^+ was present in the bath solution to occupy the selectivity filter of KV channels to prevent decay of the gating currents during recording.
(§3) Data were presented as MEAN ± SEM, n represents the number of separate experimental cells. Data were analyzed using the software Clampfit 10.5 (Axon Instruments, Irvine, CA, United States), Graphpad Prism 5.01 (GraphPad Software, La Jolla, CA, United States) and Excel 2010 (Microsoft Corporation, Redmond, WA, United States). […]

[2] = tested on: KV4.3-TN/PK (KV4.3/277PK, T277P/N278K double mutant); test: Whole-cell patch clamp, KV4.3-TN/PK (KV4.3/277PK) in CHO-K1 cells; format: cell-based, rat
Description: as §1, §2, §3

[3] = 10 μM κ-LhTx-1, two-pulse protocol, n = 5
[4] = 10 μM κ-LhTx-1, KV4.3-TN/PK, G-V, mean ± SEM, n = 5
[5] = 10 μM κ-LhTx-1, KV4.3-TN/PK, two-pulse protocol, mean ± SEM, n = 5

CC[C@H](C)[C@@H]1NC(=O)[C@H](CCC(N)=O)NC(=O)[C@@H]2CSSC[C@@H]3NC(=O)[C@H](CC(C)C)NC(=O)[C@H](CC(N)=O)NC(=O)[C@H](CCSC)NC(=O)[C@H](Cc4c[nH]c5ccccc45)NC(=O)[C@H](CO)NC(=O)[C@H](C)NC(=O)[C@@H](NC(=O)[C@H](CCC(=O)O)NC(=O)[C@H](CCC(N)=O)NC(=O)[C@H](C)NC(=O)[C@H](CC(=O)O)NC(=O)[C@@H](N)CCC(=O)O)CSSC[C@H](NC(=O)[C@H](CSSC[C@@H](C(=O)N[C@@H](CCCCN)C(=O)N[C@@H](Cc4ccc(O)cc4)C(=O)N[C@@H](CCCCN)C(=O)N[C@@H](CC(C)C)C(N)=O)NC(=O)[C@H](Cc4c[nH]c5ccccc45)NC1=O)NC(=O)[C@H](CCCCN)NC(=O)[C@H](CCCCN)NC(=O)[C@H](CCC(=O)O)NC(=O)CNC3=O)C(=O)N[C@@H](CCC(=O)O)C(=O)NCC(=O)N[C@@H](Cc1ccc(O)cc1)C(=O)N[C@@H](C(C)C)C(=O)N2 [κ-LhTx-1] (H-EDAQECASWMNLCGEKKCCEGYVCQIWCKYKL-NH2; disulfide 6-19, 13-24, 18-28 (inferred); N-terminus and C-terminus assumed)
Va (steady-state activation) ([1]; 10 μM κ-LhTx-1, G-V, n = 5): 58.61 ± 1.63 mV | k, slope factor (steady-state activation) ([1]; 10 μM κ-LhTx-1, G-V, n = 5): 19.00 ± 0.81 mV | Vh (steady-state inactivation) [1, 3]: -44.55 ± 2.07 mV | k, slope factor (steady-state inactivation) [1, 3]: 9.86 ± 1.33 mV | ∆Va (steady-state activation) ([1]; Va shift by 10 μM κ-LhTx-1 vs control): 61.44 ± 1.98 mV | ∆Vh (steady-state inactivation) ([1]; Vh shift by 10 μM κ-LhTx-1 vs control): 13.52 ± 2.24 mV | inhi%(min) ([1]; inhibition ratio at +100 mV, 10 μM): −2.82 ± 3.37% | Va (steady-state activation) [2, 4]: 81.96 ± 2.27 mV | k, slope factor (steady-state activation) [2, 4]: 15.09 ± 1.14 mV | Vh (steady-state inactivation) [2, 5]: -25.43 ± 2.92 mV | k, slope factor (steady-state inactivation) [2, 5]: 15.31 ± 2.02 mV | ∆Va and inhi%(min) vs KV4.1 ([2]; KV4.3/277PK, 10 μM): not significantly different from those in KV4.1 | ∆Va (steady-state activation) ([2]; Va shift by 10 μM κ-LhTx-1 vs control, KV4.3-TN/PK, mean ± SEM): 87.43 ± 2.99 mV | ∆Vh (steady-state inactivation) ([2]; Vh shift by 10 μM κ-LhTx-1 vs control, KV4.3-TN/PK, mean ± SEM): 26.29 ± 3.52 mV
